Values of other authors, collected in patent US20200390965A1, “TAILORED DOSE OF CONTRAST AGENT” (GE HEALTHCARE AS, priority 2017, published 2020).

Settings: powder form; aggregates dissolve very slowly

Row | SMILES | solubility in water
1 | CC(=O)N(CC(O)CN(C(C)=O)c1c(I)c(C(=O)NCC(O)CO)c(I)c(C(=O)NCC(O)CO)c1I)c1c(I)c(C(=O)NCC(O)CO)c(I)c(C(=O)NCC(O)CO)c1I (centres unmarked) [iodixanol] | highly soluble in water
2 | CC(=O)N(CC(O)CO)c1c(I)c(C(=O)NCC(O)CO)c(I)c(C(=O)NCC(O)CO)c1I (centres unmarked) [iohexol] | highly soluble in water
